Values quoted from earlier work as cited in patent publication US20230201147A1, “COCRYSTAL ANTIOXIDANTS OF PROTOCATECHUIC ACID WITH L-THEANINE FOR THE TREATMENT OF OXIDATIVE STRESS AND INFLAMMATORY CONDITIONS” (priority 2020, published 2023).

System: thrombin-stimulated thromboxane formation
Details: whole blood

Q: With `CCNC(=O)CC[C@H](N)C(=O)O` [L-theanine, N-ethyl-L-glutamine] as the compound, how does the “inhibition of thrombin-stimulated thromboxane formation” value read?
A: Its value is “potent inhibitor”.
